US20190177771A1, “PNA PROBE FOR DISCRIMINATION OF QUINOLONE ANTIBIOTIC RESISTANT BACTERIA AND METHOD FOR DISCRIMINATION OF ANTIBIOTIC RESISTANT BACTERIA USING THE SAME” (priority 2017, published 2019)
≈ marks a conversion by molar mass, not a printed value.

Assays:
[1] = test system: S. parauberis; experiment: MIC measurement of S. parauberis strains for quinolone antibiotic; assay type: cell-based; settings: Streptococcus parauberis
Description: (§1) Using S. parauberis, E. tarda, and V. harveyi samples stored in the National Institute of Fisheries Science, MIC values were measured.

[2] = test system: E. tarda; experiment: MIC measurement of E. tarda strains for quinolone antibiotics; assay type: cell-based; settings: Edwardsiella tarda
Description: as §1

[3] = test system: V. harveyi; experiment: MIC measurement of V. harveyi strains for quinolone antibiotics; assay type: cell-based, Vibrio harveyi; settings: for MIC: Vibrio harveyi
Description: as §1

[4] = E. tarda strain FP2074, gyrA Arg83
[5] = E. tarda strain FP2130, gyrA Arg83
[6] = E. tarda strain FP2240, gyrA Ser83
[7] = E. tarda strain FP2243, gyrA Arg83
[8] = E. tarda strain FP3071, gyrA Arg83
[9] = E. tarda strain FP3139, gyrA Ile83
[10] = E. tarda strain FPa4445, gyrA Arg83
[11] = V. harveyi strain FP4541, gyrA Ile83
[12] = V. harveyi strain FP3023, gyrA Ser83
[13] = V. harveyi strain FP3031, gyrA Ser83
[14] = V. harveyi strain FP3457, gyrA Ser83
[15] = V. harveyi strain FP7021, gyrA Ser83
[16] = V. harveyi strain FP8045, gyrA Ser83

Compound	MIC ([1]; S. parauberis strain FP3059, gyrA Ser81)	MIC ([1]; S. parauberis strain FP3227, gyrA Ser81)	MIC ([1]; S. parauberis strain FP4029, gyrA Ser81)	MIC ([1]; S. parauberis strain FP4031, gyrA Ser81)	MIC ([1]; S. parauberis strain FP5227, gyrA Ser81)	MIC ([1]; S. parauberis strain FPa4533, gyrA Leu81)	MIC [2, 4]	MIC [2, 5]	MIC [2, 6]	MIC [2, 7]	MIC [2, 8]	MIC [2, 9]	MIC [2, 10]	susceptibility of the strain to the antibiotic, in words [3, 11]	MIC [3, 12]	MIC [3, 13]	MIC [3, 14]	MIC [3, 11]	MIC [3, 15]	MIC [3, 16]
O=C(O)c1cn(C2CC2)c2cc(N3CCNCC3)c(F)cc2c1=O [Cipfloxacin, ciprofloxacin]	0.13 µg/mL (≈ 0.392 µM)	1 µg/mL (≈ 3.02 µM)	0.5 µg/mL (≈ 1.51 µM)	0.25 µg/mL (≈ 0.754 µM)	0.06 µg/mL (≈ 0.181 µM)	2 µg/mL (≈ 6.04 µM)	0.13 µg/mL (≈ 0.392 µM)	1 µg/mL (≈ 3.02 µM)	< 0.06 µg/mL	0.5 µg/mL (≈ 1.51 µM)	0.25 µg/mL (≈ 0.754 µM)	4 µg/mL (≈ 12.1 µM)	2 µg/mL (≈ 6.04 µM)	–	–	–	–	–	–	–
CC1CCc2cc(F)cc3c(=O)c(C(=O)O)cn1c23 (centres unmarked) [Flumequine]	–	–	–	–	–	–	8 µg/mL (≈ 30.6 µM)	64 µg/mL (≈ 245 µM)	1 µg/mL (≈ 3.83 µM)	32 µg/mL (≈ 122 µM)	16 µg/mL (≈ 61.2 µM)	≥ 512 µg/mL	32 µg/mL (≈ 122 µM)	resistance	1 µg/mL (≈ 3.83 µM)	2 µg/mL (≈ 7.66 µM)	2 µg/mL (≈ 7.66 µM)	16 µg/mL (≈ 61.2 µM)	1 µg/mL (≈ 3.83 µM)	2 µg/mL (≈ 7.66 µM)
CCn1cc(C(=O)O)c(=O)c2cc3c(cc21)OCO3 [Oxolinic acid]	–	–	–	–	–	–	4 µg/mL (≈ 15.3 µM)	64 µg/mL (≈ 245 µM)	< 0.25 µg/mL	16 µg/mL (≈ 61.2 µM)	8 µg/mL (≈ 30.6 µM)	256 µg/mL (≈ 980 µM)	8 µg/mL (≈ 30.6 µM)	resistance	1 µg/mL (≈ 3.83 µM)	1 µg/mL (≈ 3.83 µM)	2 µg/mL (≈ 7.66 µM)	8 µg/mL (≈ 30.6 µM)	1 µg/mL (≈ 3.83 µM)	1 µg/mL (≈ 3.83 µM)
